According to patent US8034940B2, “Modulators of glucocorticoid receptor, AP-1, and/or NF-κB activity and use thereof” (Bristol-Myers Squibb Company, priority 2006, dated 2011):

Test system: AP-1 induced transcriptional activity
Test: Cellular Transrepressional Assay (AP-1 luciferase reporter, PMA-activated A549 cells)
Assay type: cell-based
Settings: for Emax: A549, 7 h, read-out: AP-1 Max % inh (Cellular Transrepression Assay); for Emax / AP-1 Max % inh (Cellular Transrepression Assay): maximum inhibition
Outline: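 Compounds tested from 0.1 nM to 40 μM during a 7 h PMA (10 ng/ml) stimulation of A549 cells stably transfected with 7× AP-1 sites driving luciferase. Repression expressed as % reduction of PMA-induced luminescence; EC50 by curve fitting.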

[1] = Homo sapiens, Cellular Transrepression Assay
[2] = Homo sapiens, A549, Cellular Transrepression Assay

EC50 [2] [nM]	EC50 (Cellular Transrepression Assay) [nM]	EC50 (Cellular Transrepression Assay, listed as 166^a) [nM]	Structure (SMILES)	Emax [1] [%]	AP-1 Max % inh (Cellular Transrepression Assay) (Cellular Transrepression Assay) [%]
24.1	–	–	CCc1cnc(-c2ccc3c(c2)Oc2ccccc2C3C(C)(C)C(=O)Nc2nncs2)nc1 (stereo not shown) [Example 106]	48.4	–
–	219	–	CC(C)(C(=O)Nc1nncs1)C1c2ccccc2Oc2nc(-c3ccc(OCc4ccccc4)cc3)ccc21 (stereo not shown) [Example 202]	–	38.37
24.6	–	–	CC(C)(C(=O)Nc1ncns1)[C@H]1c2ccccc2Oc2nc(-c3ccc(C(=O)N4CCCC4)cc3)ccc21 [Example 455]	58.6	–
338	–	–	CC(C)(C(=O)Nc1nc(-c2cccc3ccccc23)cs1)C1c2ccccc2Oc2ccccc21 [Example 30]	67.2	–
27	–	–	CN(C)C(=O)c1ccc(-c2ccc3c(n2)Oc2ccccc2[C@@H]3C2(C(=O)Nc3nncs3)CCC2)cc1 (single isomer, unassigned) [Example 480]	44	–
–	–	–	Cc1ccc(-c2csc(NC(=O)CC3c4ccccc4Oc4ccccc43)n2)c2ccccc12 [Example 3]	47.8	–
–	42.8	–	COc1ccc(NC(=O)Oc2ccc3c(c2)Oc2ccccc2C3C(C)(C)C(=O)Nc2nncs2)cc1 (stereo not shown) [Example 390]	–	56.63
–	32.7	–	CC(C)(C(=O)Nc1nncs1)C1c2ccccc2Oc2cc(OC(=O)NCc3ccc(F)cc3)ccc21 (stereo not shown) [Example 377]	–	49.10
–	61.9	–	COc1ccc(CCNC(=O)Oc2ccc3c(c2)Oc2ccccc2C3C(C)(C)C(=O)Nc2nncs2)cc1 (stereo not shown) [Example 384]	–	42.30
14.8	–	–	CC(C)(C(=O)Nc1nncs1)[C@H]1c2ccccc2Oc2nc(-c3ccc(C(=O)N4CCC(F)(F)CC4)cc3)ccc21 [Example 300]	61.8	–
71.9	–	–	CNC(=O)c1nnc(NC(=O)C(C)(C)[C@H]2c3ccccc3Oc3nc(-c4ccc(C(=O)N5CCCC5)c(F)c4)ccc32)s1 [Example 419]	46.6	–
42.9	–	–	Cc1nnc(NC(=O)C2(C3c4ccccc4Oc4nc(-c5ccc(C(=O)N(C)C)cc5)ccc43)CCC2)s1 (stereo not shown) [Example 488]	34.5	–
51.5	–	–	CNC(=O)c1nnc(NC(=O)C(C)(C)[C@H]2c3ccccc3Oc3nc(-c4ccc(C(=O)N5CCOCC5)cc4)ccc32)s1 [Example 422]	50.5	–
15.7	–	–	CC(C)(C(=O)Nc1nc(Cc2ccc(-c3ccncc3)cc2)cs1)C1c2ccccc2CCc2ccccc21 [Example 24]	78.8	–
11.8	–	–	COc1ccc2c(c1)Oc1ccccc1[C@@H]2C(C)(C)C(=O)Nc1nc(Cc2ccc(-c3cccnc3)cc2)cs1 [Example 59]	58.4	–
90.2	–	–	COc1ccc2c(c1)Oc1ccccc1C2C(C)(C)C(=O)Nc1nc(-c2ccc(C)c3ccccc23)cs1 (stereo not shown) [Example 46]	67.6	–
–	51.5	–	CC(C)S(=O)(=O)c1ccc(-c2ccc3c(n2)Oc2ccccc2C3C(C)(C)C(=O)Nc2nncs2)cc1 (stereo not shown) [Example 228]	–	28.32
–	28.9	–	CC(C)(C(=O)Nc1nncs1)[C@H]1c2ccccc2Oc2nc(-c3ccc(C4CCCCC4)cc3)ccc21 [Example 221]	–	62.97
54.8	–	–	CC(C)(C(=O)Nc1nncs1)[C@H]1c2ccccc2Oc2nc(-c3ccc(C(=O)N4CCC(F)(F)C4)c(Cl)c3)ccc21 [Example 340]	67.6	–
307	–	–	CC(C)(C(=O)Nc1nncs1)C1c2ccccc2Oc2nc(N3CCOCC3)ccc21 (stereo not shown) [Example 129]	39.5	–
128	–	–	Cc1csc(NC(=O)C(C)(C)[C@H]2c3ccccc3Oc3cc(O)ccc32)n1 [Example 88]	49.2	–
83	–	–	CC(C)(C(=O)Nc1nncs1)C1c2ccccc2Oc2cc(NC(=O)OCc3ccccc3)ccc21 (stereo not shown) [Example 119]	45.3	–
319	–	–	CC(C)(C(=O)Nc1nc(-c2cccc3ccccc23)cs1)C1c2ccccc2Oc2nc(Cl)ccc21 (stereo not shown) [Example 74]	71.2	–
14.6	–	–	CCc1cnc(-c2ccc3c(c2)Oc2ccccc2[C@@H]3C(C)(C)C(=O)Nc2nncs2)nc1 [Example 111]	40.7	–
461	–	–	CC(C)(C(=O)Nc1nc(-c2cccc3ccccc23)cs1)C1c2ccccc2S(=O)(=O)c2ccccc21 [Example 12]	67.9	–
39.6	–	–	CC(C)(C(=O)Nc1nncs1)[C@H]1c2ccccc2Oc2nc(-c3ccc(C(=O)N4CCC[C@@H]4CO)c(F)c3)ccc21 [Example 344]	44.5	–

EC50 [2] [nM]	EC50 (Cellular Transrepression Assay) [nM]	EC50 (Cellular Transrepression Assay, listed as 166^a) [nM]	Structure (SMILES)	Emax [1] [%]	AP-1 Max % inh (Cellular Transrepression Assay) (Cellular Transrepression Assay) [%]
58.2	–	–	CC(C)(C(=O)Nc1nc(Cc2ccc(-c3ccncc3)cc2)cs1)C1c2ccccc2Sc2ccccc21 [Example 5]	66	–
18.2	–	–	CCN(C)C(=O)c1ccc(-c2ccc3c(n2)Oc2ccccc2[C@@H]3C(C)(C)C(=O)Nc2nnc(C)s2)cc1 [Example 464]	54	–
461	–	–	CC(C)(C(=O)Nc1nc(-c2ccc(F)c3ccccc23)cs1)C1c2ccccc2Oc2ccc(C(F)(F)F)cc21 (stereo not shown) [Example 40]	47.8	–
–	–	–	CC(C)(C(=O)Nc1nc(C(=O)c2ccccc2)cs1)C1c2ccccc2Oc2ccccc21 [Example 44]	69.3	–
96	–	–	CC(C)(C(=O)Nc1nncs1)C1c2ccccc2Oc2nc(N3CCCCC3)ccc21 (stereo not shown) [Example 132]	50.1	–
778	–	–	CC(C)(C(=O)Nc1nncs1)[C@H]1c2ccccc2Oc2nc(NC(=O)NCCN3CCCC3)ccc21 [Example 401]	35.1	–
–	180	–	CC(C)(C(=O)Nc1nncs1)[C@H]1c2ccccc2Oc2nc(-c3ccncc3)ccc21 [Example 219]	–	35.87
3.7	–	–	Cn1cc(-c2ccc(Cc3csc(NC(=O)C(C)(C)C4c5ccccc5Oc5ccccc54)n3)cc2)cn1 [Example 42]	73.4	–
34.7	–	–	CC(C)(C(=O)Nc1nnc(CF)s1)[C@H]1c2ccccc2Oc2nc(-c3ccc(C(=O)N4CCOCC4)cc3)ccc21 [Example 430]	47.2	–
–	50.5	–	CC(C)(C(=O)Nc1nncs1)C1c2ccccc2Oc2cc(OC(=O)NCc3ccccc3)ccc21 (stereo not shown) [Example 389]	–	55.20
3.9	–	–	CC(C)(C(=O)Nc1nncs1)C1c2ccccc2Oc2cc(/C(N)=N\O)ccc21 (stereo not shown) [Example 115]	31.3	–
126	–	–	Cc1nsc(NC(=O)C(C)(C)[C@H]2c3ccccc3Oc3nc(-c4ccc(C(=O)N(C)C)cc4)ccc32)n1 [Example 449]	48.9	–
139	–	–	COc1ccc(NC(=O)c2cccc(-c3csc(NC(=O)C(C)(C)C4c5ccccc5Oc5ccccc54)n3)c2)cc1Cl [Example 29]	66.4	–
40.2	–	–	Cc1nnc(NC(=O)C(C)(C)[C@H]2c3ccccc3Oc3nc(-c4ccc(C(=O)N5CCOCC5)c(Cl)c4)ccc32)s1 [Example 473]	52.5	–
234	–	–	CC(=O)N1CCN(C(=O)c2ccc(-c3ccc4c(n3)Oc3ccccc3[C@@H]4C(C)(C)C(=O)Nc3nncs3)cc2)CC1 [Example 274]	62.2	–
–	118	–	CN(C)c1ccc(-c2ccc3c(n2)Oc2ccccc2C3C(C)(C)C(=O)Nc2nncs2)cc1 (stereo not shown) [Example 176]	–	43.54
23.1	–	–	CN(C)C(=O)c1ccc(-c2ccc3c(n2)Oc2ccccc2[C@@H]3C(C)(C)C(=O)Nc2nncs2)cc1Cl [Example 260]	67.3	–
3.52	–	–	CC(C)(C(=O)Nc1nc(Cc2ccc(-c3ccncc3)cc2)cs1)C1c2ccccc2Oc2ccccc21 [Example 34]	71.8	–
8.5	–	–	Cc1nsc(NC(=O)C(C)(C)C2c3ccc(-c4ccc(C(=O)N5CCOCC5)cc4)nc3Oc3c(F)cccc32)n1 (stereo not shown) [Example 164]	58	–
93.7	–	–	COc1ccc(CNc2ccc3c(n2)Oc2ccccc2[C@@H]3C(C)(C)C(=O)Nc2nncs2)cc1 [Example 140]	64.1	–
165	–	–	COc1ccc2c(c1)Oc1ccccc1C2C(C)(C)C(=O)Nc1nc(Cc2ccc(Br)cc2)cs1 (stereo not shown) [Example 50]	74.8	–
103	–	–	CC(C)(C(=O)Nc1nncs1)[C@H]1c2ccccc2Oc2nc(-c3ccc(C(=O)N4CC(F)(F)C(F)(F)C4)c(F)c3)ccc21 [Example 337]	51.5	–
–	45.2	–	CC(C)(C(=O)Nc1nncs1)C1c2ccccc2Oc2cc(OC(=O)NCCc3ccc(F)cc3)ccc21 (stereo not shown) [Example 381]	–	52.00
–	–	–	CC(C)(C(=O)Nc1nc(-c2ccc(F)c3ccccc23)c[nH]1)C1c2ccccc2Oc2ccccc21 [Example 38]	70.4	–
–	43.4	14.5	Cc1nnc(NC(=O)C(C)(C)C2c3ccc(-c4ccc(C(=O)N(C)C)cc4)nc3Oc3c(F)cccc32)s1 (stereo not shown) [Example 166]	56.1	–
91.6	–	–	COc1ccc(Cc2csc(NC(=O)C(C)(C)C3c4ccccc4Oc4nc(OC)ccc43)n2)cc1 (stereo not shown) [Example 77]	73.9	–

Structure (SMILES)	EC50 [2] [nM]	EC50 (Cellular Transrepression Assay) [nM]	EC50 (Cellular Transrepression Assay, listed as 166^a) [nM]	Emax [1] [%]	AP-1 Max % inh (Cellular Transrepression Assay) (Cellular Transrepression Assay) [%]
CCNC(=O)Oc1ccc2c(c1)Oc1ccccc1C2C(C)(C)C(=O)Nc1nncs1 (stereo not shown) [Example 387]	82	–	–	52.5	–
CC(C)(C(=O)Nc1nncs1)[C@H]1c2ccccc2Oc2cc(OC(=O)NCc3ccccc3)ccc21 [Example 369, (s)-9-(1-(1,3,4-thiadiazole-2ylamino)-2-methyl-1-oxopropan-2-yl)-9H-xanthen-3-yl benzylcarbamate]	33	–	–	55.5	–
CCNC(=O)Oc1ccc2c(c1)Oc1ccccc1[C@@H]2C(C)(C)C(=O)Nc1nncs1 [Example 371]	22.3	–	–	48.7	–
CC(C)(C)NC(=O)Oc1ccc2c(c1)Oc1ccccc1C2C(C)(C)C(=O)Nc1nncs1 (stereo not shown) [Example 382]	206	–	–	47.2	–
CCCCNC(=O)Oc1ccc2c(c1)Oc1ccccc1[C@@H]2C(C)(C)C(=O)Nc1nncs1 [Example 370]	34.2	–	–	57.6	–
